# Experimental data reported in paper PMC3731359 (PLoS ONE, 2013).
# Entries after “also recorded” stand apart in the source; their conditions may differ.
# T1: NAE (Homo sapiens, UniProt Q13564+Q8TBC4)
# T1 construct: made in house; host or cells: E. coli BL21(DE3)pLysS
# T1 sequence (Q8TBC4 22-463 limits assumed): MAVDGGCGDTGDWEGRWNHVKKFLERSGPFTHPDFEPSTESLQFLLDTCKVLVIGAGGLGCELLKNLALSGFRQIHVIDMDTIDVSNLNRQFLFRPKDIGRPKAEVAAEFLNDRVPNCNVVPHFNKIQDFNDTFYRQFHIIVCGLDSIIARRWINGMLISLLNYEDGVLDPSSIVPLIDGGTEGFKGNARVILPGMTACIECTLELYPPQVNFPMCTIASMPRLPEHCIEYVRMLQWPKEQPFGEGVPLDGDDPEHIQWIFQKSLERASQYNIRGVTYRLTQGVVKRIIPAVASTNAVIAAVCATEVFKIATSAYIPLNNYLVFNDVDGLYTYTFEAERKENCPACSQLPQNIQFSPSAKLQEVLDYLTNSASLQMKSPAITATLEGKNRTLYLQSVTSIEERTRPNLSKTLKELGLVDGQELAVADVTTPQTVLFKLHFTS
# T1 sequence (Q13564 1-534 partner): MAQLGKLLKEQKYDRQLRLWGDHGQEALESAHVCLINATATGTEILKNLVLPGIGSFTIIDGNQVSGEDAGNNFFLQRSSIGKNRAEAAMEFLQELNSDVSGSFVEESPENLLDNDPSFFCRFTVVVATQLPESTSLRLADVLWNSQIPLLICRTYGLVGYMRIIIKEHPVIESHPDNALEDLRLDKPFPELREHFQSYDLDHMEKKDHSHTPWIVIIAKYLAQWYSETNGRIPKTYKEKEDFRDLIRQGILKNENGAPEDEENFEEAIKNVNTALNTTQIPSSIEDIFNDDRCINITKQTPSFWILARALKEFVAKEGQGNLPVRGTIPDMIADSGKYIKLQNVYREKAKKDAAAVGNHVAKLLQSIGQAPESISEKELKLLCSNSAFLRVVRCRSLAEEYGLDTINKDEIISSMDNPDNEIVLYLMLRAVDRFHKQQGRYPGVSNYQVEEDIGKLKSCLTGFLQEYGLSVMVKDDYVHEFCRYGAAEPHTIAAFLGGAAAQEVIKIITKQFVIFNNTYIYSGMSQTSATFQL
# T2: Nedd8 activating enzyme (NAE), heterodimer of APPBP1 and Uba3 (UniProt Q13564 1-534; Q8TBC4 33-463)
# T2 sequence 1: T1 sequence (Q13564 1-534 partner)
# T2 sequence 2: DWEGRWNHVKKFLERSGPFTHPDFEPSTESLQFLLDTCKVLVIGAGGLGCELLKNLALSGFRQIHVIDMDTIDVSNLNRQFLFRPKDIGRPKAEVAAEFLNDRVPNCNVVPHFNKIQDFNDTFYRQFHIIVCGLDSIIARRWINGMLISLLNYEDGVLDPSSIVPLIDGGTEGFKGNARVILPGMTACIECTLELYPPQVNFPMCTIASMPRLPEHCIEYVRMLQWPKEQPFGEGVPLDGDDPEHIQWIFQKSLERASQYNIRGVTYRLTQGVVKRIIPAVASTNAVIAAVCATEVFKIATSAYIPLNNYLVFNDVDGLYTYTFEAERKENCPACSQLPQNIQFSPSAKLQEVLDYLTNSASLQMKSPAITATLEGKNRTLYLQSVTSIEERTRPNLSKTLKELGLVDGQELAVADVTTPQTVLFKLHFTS
# B1: peptide pN7 (70VMLFYGG76) (peptide)
# peptide: VMLFYGG
# B2: peptide pN1 (70VWLSYGG76) (peptide)
# peptide: VWLSYGG
# B3: peptide pN26 (70VLALRGG76) (peptide)
# peptide: VLALRGG
# Experiments:
# Ubc12 (E2) = assay: Western blot: transfer of UB variants to Ubc12; type: biochemical; details: 5 µM HA-tagged protein, 1 µM NAE, 1 µM Ubc12, 1 µM cullin, 1 mM ATP, 1 h, room temperature, anti-HA Western blot
# Procedure: (§1) Figure 6 Transfer of phage selected UB variants to NAE (E1), Ubc12 (E2), and cullin-3. HA-tagged wt UB, wt Nedd8 and UB variants were used in the assay. In the control reaction, either Ubc12 or cullin-3 in complex with Rbx1 was missing. The blots were probed with a mouse anti-HA antibody and a goat anti-mouse IgG antibody linked to HRP.
# (§2) 20 µL of the reaction mixture were loaded on a 4–15% SDS-PAGE gel (Bio-Rad). After electrophoresis, the protein bands were electroblotted onto a piece of polyvinylidene fluoride membrane (Bio-Rad). The membrane was blocked with 3% BSA in TBS buffer for 1 hour followed by incubation with 3% BSA in TBS buffer containing 1∶500 diluted 200 µg/mL anti-HA antibody (Santa Cruz Biotechnology) and 1∶10,000 diluted anti-mouse horseradish peroxidase conjugate (Pierce) for 1 hour, respectively. The membrane was then washed 5 times with TBS-T buffer and 5 times with TBS buffer followed by detection with the ECL luminescent detection kit (GE Healthcare).
# cullin-3 [1] = assay: Western blot: transfer of UB variants to cullin-3; type: biochemical; details: 5 µM HA-tagged protein, 1 µM NAE, 1 µM Ubc12, 1 µM cullin, 1 mM ATP, 1 h, room temperature, anti-HA Western blot
# Procedure: as §1, §2
# NAE (E1) = assay: Western blot: formation of UB∼NAE thioester conjugates; type: biochemical; details: 5 µM HA-tagged protein, 1 µM NAE, 1 mM ATP, 1 h, room temperature, anti-HA Western blot
# Procedure: as §1, §2
# NAE (Homo sapiens) = NAE (Homo sapiens) (UniProt Q13564); details: cited from earlier work
# UAE = details: Ala72 of Nedd8 mutated to Arg; cited from earlier work
# Source text: As expected the two proteins also adopt very similar structures featuring the β-grasp fold. Their E1 enzymes are also homologous to each other in both peptide sequences and crystal structures, except that NAE is a heterodimer of two subunits, APPBP1 and Uba3, while UAE is composed of a single chain [8], [20], [21].
# NAE [2] = molecular target: T1, NAE; assay: ATP/PPi exchange assay (NAE activation kinetics); type: biochemical; details: for activation by NAE: 50 µM heptameric peptide, 0.5 µM NAE, 30 min, room temperature, versus background with no peptide added; for kcat/Km: Nedd8 mimicking heptameric peptides, 0.1 µM NAE, 10–1000 µM peptide, pH 7.5, room temperature
# Source text: We used the ATP/PPi exchange assay [28], [29] to measure the kinetics of NAE activation of UB mutants. In this assay, NAE catalyzes the condensation of UB with ATP to form a UB-AMP conjugate coupled to the release of PPi. Externally added PPi labeled with the radioactive isotope ^32P sets the reaction in reverse thus incorporating ^32PPi into ATP. Radioactive ATP formed in the reaction is captured by charcoal and quantified. The rate of ^32PPi exchange into ATP reflects the reactivities of NAE with the UB variants to form UB-AMP intermediates.
# The reaction was incubated for 30 min at room temperature and then quenched by the addition of 0.5 mL slurry of charcoal in 2% trichloroacetic acid. After centrifugation, the charcoal pellet was washed 3 times each time with 1 mL 2% trichloroacetic acid, and eventually resuspended in 0.5 mL water and 3.5 mL Ultima Gold LSC-cocktail (Perkin Elmer). The radioactivity bound to charcoal was determined by liquid scintillation counting.
# The reaction was incubated at room temperature for 5, 10, 15, 20 and 25 minutes before it was quenched with the addition of 0.5 mL slurry of charcoal in 2% trichloroacetic acid. The radioactivity incorporated into charcoal-bound ATP was measured by liquid scintillation counting. K1/2 and kcat values of the ATP-PPi exchange reaction were calculated by fitting the data to the Michaelis-Menten equation with the data analysis software Origin. To measure peptide activation by NAE, 0.1 µM NAE was used in the reaction with the concentration of the peptides varying from 10 µM to 1000 µM.
# Ubc12 [3] = assay: Western blot: peptide transfer to Ubc12; type: biochemical; details: 5 µM peptide biotin-conjugated at N-terminus, 1 µM NAE, 1 µM Ubc12, 1 µM cullin, 1 h, room temperature, streptavidin-HRP blot
# Procedure: (§3) The peptides were conjugated to biotin at their N-termini. The Uba3 subunit of NAE formed the thioester conjugate with the peptides. The Western blot was probed with streptavidin conjugated to HRP.
# (§4) Biotin Conjugation of the Peptides
# (§5) Heptameric peptides with the C-terminal sequences of wt UB, wt Nedd8, and UB variants from phage selection were ordered from EZBiolab (Carmel, Indiana). The peptides were further purified by HPLC to be more than 95% pure. Peptide pN1 (2 mg, […]) was added to a solution of N-hydroxysuccinimidyl-6′-(biotinamido)-6-hexanamido hexanoate (NHS-LC-LC-biotin, Pierce) (4.4 mg, 7.750 µmol) in 50 mM sodium phosphate buffer (pH 7.0, 300 µL) and DMSO (300 µL). The reaction was allowed to proceed by stirring overnight at room temperature. The reaction mixture was then purified by HPLC with a gradient of 5–85% acetonitrile in 0.1% TFA/water at a flow rate of 10 mL/min over the course of 25 minutes. Biotin was conjugated to the N-terminal amino groups of the peptides pN7 and N26 with the same procedure. The purified biotin-peptide conjugates were lyophilized, and their identities were confirmed via MALDI-TOF mass spectrometry (positive mode): biotin-pN1 (VWLSYGG), calculated: 1256.10 Da (MNa^+), found: 1254.87 Da; biotin-pN7 (VMLFYGG), calculated: 1261.19 Da (MNa^+), found:1260.49 Da; biotin-pN26 (VLALRGG), calculated: 1138.06 Da (MH^+), found:1137.78 Da.
# (§6) To assay the transfer of biotin conjugated peptides to NAE, Ubc12 and cullin, 5 µM biotin labeled peptide, 1 µM NAE, 1 µM Ubc12 and 1 µM cullin were incubated with 1 mM ATP, 10 mM MgCl2 and 50 µM DTT in the TBS buffer for 1 hour at room temperature before SDS-PAGE and membrane blotting. The membrane was blocked with 3% BSA in TBS buffer for 1 hour followed by incubation with 3% BSA in TBS buffer containing 1∶10,000 diluted 1 mg/mL streptavidin-horse radish peroxidase conjugate (Pierce) for 1 hour. The membrane was then washed 5 times with TBS-T buffer and 5 times with TBS buffer followed by detection with the ECL luminescent detection kit.
# NAE [4] = molecular target: T1, NAE; assay: Inhibition of Nedd8 transfer through the cascade: NAE conjugate; type: biochemical; details: 5–200 µM peptide, 0.5 µM NAE, 0.5 µM Ubc12, 1 µM cullin, 1 h, then 5 µM HA-Nedd8, 15 min, Western blot
# Source text: as §3
# cullin-3 [5] = assay: Inhibition of Nedd8 transfer to cullin (cullin neddylation); type: biochemical; details: 5–200 µM peptide, 0.5 µM NAE, 0.5 µM Ubc12, 1 µM cullin, 1 h, then 5 µM HA-Nedd8, 15 min, Western blot
# Source text: as §3
# cullin 3 = assay: Western blot: peptide transfer to cullin 3; type: biochemical; details: 5 µM peptide biotin-conjugated at N-terminus, 1 µM NAE, 1 µM Ubc12, 1 µM cullin, 1 h, room temperature, streptavidin-HRP blot
# Procedure: as §3, §4, §5, §6
# Ubc12 [6] = assay: Inhibition of Nedd8 transfer to Ubc12; type: biochemical; details: 5–200 µM peptide, 0.5 µM NAE, 0.5 µM Ubc12, 1 µM cullin, 1 h, then 5 µM HA-Nedd8, 15 min, Western blot
# Source text: as §3
# NAE [7] = molecular target: T1, NAE; assay: Western blot: peptide∼NAE thioester conjugate formation; type: biochemical; details: 5 µM peptide biotin-conjugated at N-terminus, 1 µM NAE, 1 mM ATP, 1 h, room temperature, streptavidin-HRP blot
# Procedure: as §3, §4, §5, §6
# [8] = molecular target: T2, Nedd8 activating enzyme (NAE), …; assay: cell-based or functional assay
molecule,measurement,setting,value
"N11: UB variant from phage selection, C-terminal sequence 71AAAAGG76",transfer from NAE to Ubc12 (UB∼Ubc12 conjugates),Ubc12 (E2),can also be transferred from NAE to Ubc12
same,transfer to cullin (cullin modification),cullin-3 [1],substantial cullin modification at a level similar or exceeding that of wt Nedd8; also recorded: can also be transferred through the NAE-Ubc12 cascade to modify cullin at a similar level as N26 and the wt Nedd8
"N27: UB variant from phage selection, C-terminal sequence 71YQTYSG76, Gly75 replaced by Ser",transfer from NAE to Ubc12 (UB∼Ubc12 conjugates),Ubc12 (E2),does not form a UB∼Ubc12 conjugate
same,formation of UB∼NAE conjugates,NAE (E1),normal level of NAE activation and thioester formation with NAE
same,transfer to cullin (cullin modification),cullin-3 [1],its transfer to Ubc12 and cullin is blocked
Nedd8 (from UniProt Q15843),Kd,NAE (Homo sapiens),8.75 µM
Nedd8 mutant: Nedd8 with Ala72 mutated to Arg,activation by UAE,UAE,can be activated by UAE
same,increase in affinity with UAE,UAE,65 fold
"VAAAAGG [pN11, heptameric peptide VAAAAGG derived from UB variant N11]",activation by NAE,NAE [2],not reactive with NAE
VLALRGG [pN26],formation of peptide∼Ubc12 conjugates,Ubc12 [3],strong activity for the formation of peptide∼Ubc12 conjugates
same,Nedd8 conjugates with NAE after preloading with peptide,NAE [4],"did not produce any Nedd8 conjugates with NAE, Ubc12 or cullin"
same,Nedd8 conjugates with cullin after preloading with peptide,cullin-3 [5],"did not produce any Nedd8 conjugates with NAE, Ubc12 or cullin"
same,transfer of peptide to cullin 3,cullin 3,can be further transferred to cullin 3
same,activation by NAE,NAE [2],can be activated at a level significantly higher than the background
same,Nedd8 conjugates with Ubc12 after preloading with peptide,Ubc12 [6],"did not produce any Nedd8 conjugates with NAE, Ubc12 or cullin"
same,formation of peptide∼NAE thioester conjugates,NAE [7],can form thioester conjugates with NAE
"VMLFYGG [pN7, Nedd8-mimicking heptameric peptide VMLFYGG]",formation of peptide∼Ubc12 conjugates,Ubc12 [3],only has low activity for transferring to Ubc12
same,Nedd8 conjugates with NAE after preloading with peptide,NAE [4],"did not produce any Nedd8 conjugates with NAE, Ubc12 or cullin"
same,Nedd8 conjugates with cullin after preloading with peptide,cullin-3 [5],"did not produce any Nedd8 conjugates with NAE, Ubc12 or cullin"
same,transfer of peptide to cullin 3,cullin 3,none of them can form peptide-cullin conjugates at a detectable level
same,activation by NAE,NAE [2],can be activated at a level significantly higher than the background
same,kcat/Km,NAE [2],2670 M⁻¹ s⁻¹
same,Nedd8 conjugates with Ubc12 after preloading with peptide,Ubc12 [6],"did not produce any Nedd8 conjugates with NAE, Ubc12 or cullin"
same,formation of peptide∼NAE thioester conjugates,NAE [7],can form thioester conjugates with NAE; also recorded: form peptide∼NAE conjugates at a similar level as pN26
"VWLSYGG [pN1, Nedd8-mimicking heptameric peptide VWLSYGG]",formation of peptide∼Ubc12 conjugates,Ubc12 [3],no observable formation of peptide∼Ubc12 conjugates
same,Nedd8 conjugates with NAE after preloading with peptide,NAE [4],"did not produce any Nedd8 conjugates with NAE, Ubc12 or cullin"
same,Nedd8 conjugates with cullin after preloading with peptide,cullin-3 [5],"did not produce any Nedd8 conjugates with NAE, Ubc12 or cullin"
same,transfer of peptide to cullin 3,cullin 3,none of them can form peptide-cullin conjugates at a detectable level
same,activation by NAE,NAE [2],can be activated at a level significantly higher than the background
same,kcat/Km,NAE [2],3000 M⁻¹ s⁻¹
same,Nedd8 conjugates with Ubc12 after preloading with peptide,Ubc12 [6],"did not produce any Nedd8 conjugates with NAE, Ubc12 or cullin"
same,formation of peptide∼NAE thioester conjugates,NAE [7],can form thioester conjugates with NAE; also recorded: form peptide∼NAE conjugates at a similar level as pN26
B1,Km (K1/2) of the ATP/PPi exchange reaction catalyzed by NAE,[8],155 µM
same,kcat of the ATP/PPi exchange reaction catalyzed by NAE,[8],0.4 s⁻¹
same,kcat/Km of the ATP/PPi exchange reaction catalyzed by NAE,[8],2670 M⁻¹ s⁻¹
B2,Km (K1/2) of the ATP/PPi exchange reaction catalyzed by NAE,[8],130 µM
same,kcat of the ATP/PPi exchange reaction catalyzed by NAE,[8],0.4 s⁻¹
same,kcat/Km of the ATP/PPi exchange reaction catalyzed by NAE,[8],3000 M⁻¹ s⁻¹
B3,kcat of the ATP/PPi exchange reaction catalyzed by NAE,[8],0.433 s⁻¹
same,kcat/Km of the ATP/PPi exchange reaction catalyzed by NAE,[8],4830 M⁻¹ s⁻¹
